Results reported in patent publication US11311543B2, “Compositions and methods for inhibiting PTPN22” (YALE UNIVERSITY, priority 2016, dated 2022).

Experiments:
[1] = system: new emigrant/transitional B cells; assay: Frequencies of autoreactive new emigrant/transitional B cells (central B cell tolerance) in humanized NSG mice engrafted with PTPN22 C/T or T/T HSCs; assay type: in vivo, NSG mice engrafted with human HSCs
Experimental: FIG. 7, comprising FIG. 7A through FIG. 7C depicts results of experiments showing inhibition of PTPN22 enzymatic activity resets central B cell tolerance. FIG. 7A depicts a schematic diagram depicting the PTPN22 inhibitor treatment strategy. NSG mice generated with CD34+ HSCs carrying PTPN22 T allele(s) were injected twice daily with 0.75 mg or 0.15 mg of PTPN22 inhibitor for one week. FIG. 7B depicts the frequencies of polyreactive new emigrant B cells from NSG mice carrying PTPN22 T allele(s) and treated with the PTPN22 inhibitor were determined and compared to those of non-treated NSG mice. […] For each B-cell fraction, the frequency of reactive (filled area) and non-reactive (open area) clones is summarized in pie charts with the total number of clones tested indicated in the center. In summarized reactivity panels on the right, each dot represents an untreated mouse and full and half-filled diamonds mice treated with either 0.75 or 0.15 mg of LTV-1 PTPN22 inhibitor, respectively. Averages are shown with a bar. FIG. 7C depicts the frequencies of HEp-2 reactive new emigrant B cells from NSG mice carrying PTPN22 T allele(s) and treated with the PTPN22 inhibitor were determined and compared to those of non-treated NSG mice. […] For each B-cell fraction, the frequency of reactive (filled area) and non-reactive (open area) clones is summarized in pie charts with the total number of clones tested indicated in the center. In summarized reactivity panels on the right, each dot represents an untreated mouse and full and half-filled diamonds mice treated with either 0.75 or 0.15 mg of LTV-1 PTPN22 inhibitor, respectively. Averages are shown with a bar.
Human CD34^+ cells were purified from fetal liver samples by density gradient centrifugation followed by positive immunomagnetic selection with anti-human CD34 microbeads (Miltenyi). Newborn NSG mice (within first 3 days of life) were sublethally irradiated (X-ray irradiation with X-RAD 320 irradiator at 180 cGy) and 100,000-150,000 CD34^+ cells in 20 μL of PBS were injected into the liver with a 22-gauge needle (Hamilton Company). Mice were used for experiments 10-12 weeks after transplantation. NSG mice treated with the PTPN22 inhibitor were injected twice daily i.p. with 0.75 mg or 0.15 mg of PTPN22 inhibitor for a week.
The pTRIP-Ubi-GFP lentiviral vector has been used for overexpression of PTPN22 variants and short hairpin RNA (shRNA) delivery. Vector constructions have been described previously (Cantaert et al., 2015, Immunity 43:884-95; Ruer-Laventie et al., 2015, Immun Inflamm Dis 3:265-79). The following sequence are used for human PTPN22 targeting: shRNA1 5′-[…]-3′ (SEQ ID NO: 1), shRNA2 5′-CTGTTGCCAACATCCTCTA-3′(SEQ ID NO: 3), or shRNA3 5′-AAGAATCCACCTGACTTCC-3′(SEQ ID NO: 2). Lentiviral particles were produced by transient transfection of 293T cells, as previously described (Schickel et al., 2012, EMBO Mol Med 4:1261-75). Viruses were then used to transduce CD34^+ HSCs in the presence of protamine sulfate (Sigma).
B cells were enriched from splenocytes using magnetic separation with CD19 microbeads (Miltenyi Biotech) and stained with CD19-Pacific Blue, CD10-PE-Cy7, CD21-APC and IgM-biotin (all from Biolegend) prior to purification. Single CD19^+CD10^+CD21^lowGFP^− or GFP^+ new emigrant B cells were sorted on a FACSAria (BD Biosciences) into 96-well PCR plates and immediately frozen on dry ice. […]

ERK = assay: Phosphorylation kinetics of ERK in RAMOS cells after BCR triggering (immunoblot); assay type: cell-based, human; conditions: LTV-1 5 μg/mL
Experimental: (§1) FIG. 40A depicts the phosphorylation of SHIP1, Lyn and ERK1/2 in total cell lysates of Ramos B cells treated or not with the PTPN22 inhibitor LTV-1 (5 μg/mL) for the indicated times. The cells were subjected to immunoblot analysis of P-LYN P-SHIP1, P-ERK1/2, and β-ACTIN. FIG. 40B depicts flow cytometry analysis of calcium flux of Ramos B cells treated or not with the PTPN22 inhibitor LTV-1 (5 μg/mL) for the indicated times followed by stimulation with anti-IgM F(ab′)2 at the indicated concentrations. FIG. 40C depicts flow cytometry analysis of calcium flux of splenocyte cells treated or not with LTV-1 (0.75 mg) twice daily for 7 days and stimulated with anti-IgM F(ab′)2 (25 μg/mL). FIG. 40D depicts flow cytometry analysis of calcium flux of splenocyte expressing PTPN22 shRNA and stimulated with anti-IgM F(ab′)2 (25 μg/mL).
(§2) However, downstream ERK phosphorylation was not affected by PTPN22 inhibition (FIG. 40A). Since PTPN22 inhibition enhanced TCR signaling in Jurkat cell line, it was investigated if PTPN22 blockade may also increase BCR signaling and calcium flux induced by BCR triggering was measured in RAMOS cells in the presence or not of LTV-1. Calcium flux was increased by PTPN22 inhibition, especially at lower concentration of BCR triggering agent (FIG. 40B). […]

[2] = system: B cells isolated from humanized mice; assay: Calcium flux after BCR triggering in B cells isolated from humanized mice (flow cytometry); assay type: in vivo, humanized NSG mouse; conditions: anti-IgM F(ab′)2 25 μg/mL
Experimental: as §1, §2

[3] = GFP+ shRNA+ PTPN22 C/T or T/T new emigrant/transitional B cells vs GFP- counterparts

Cc1ccccc1N1C(=O)/C(=C/c2ccc(OCc3cccc(C(=O)O)c3)cc2)C(=O)NC1=S [LTV-1]
frequencies of HEp-2 reactive new emigrant/transitional B cells ([1]; PTPN22 C/T or T/T engrafted NSG mice, 0.75 mg LTV-1 i.p. twice daily for a week): normalized
frequencies of polyreactive new emigrant/transitional B cells ([1]; PTPN22 C/T or T/T engrafted NSG mice, 0.75 mg LTV-1 i.p. twice daily for a week, vs non-treated): significantly reduced
anti-nuclear clone frequencies ([1]; PTPN22 C/T or T/T engrafted NSG mice, LTV-1 twice daily for a week): remained very low
downstream ERK phosphorylation (ERK): not affected
calcium flux in B cells isolated from treated humanized mice ([2]; LTV-1 0.75 mg twice daily for 7 days, vs non-treated): enhanced

shRNA #1: shRNA targeting human PTPN22, 5′-CTAGTGCTCTTGGTGTATATT-3′, delivered by GFP-tagged lentivirus
production of HEp-2 reactive clones [1, 3]: significantly reduced
production of polyreactive clones [1, 3]: significantly reduced
calcium flux after BCR triggering in GFP+ shRNA-expressing B cells ([2]; GFP+ vs GFP- B cells from humanized NSG mouse): increased calcium flux
